For 22 compounds, remaining activity results are on record in patent US9468692B2, “Labeled molecular imaging agents and methods of use” (GENERAL ELECTRIC COMPANY, priority 2014, dated 2016).

Each structure is given as a SMILES string.

For this assay, the target named is T1, cystine/glutamate transporter (Homo sapiens, UniProt Q9UPY5).
T1 construct: endogenous in cells; host or cells: SKOV3 cells treated with 100 uM DEM (the paragraph also says 'DEM treated EL4 cells')
T1 sequence (Q9UPY5 1-501): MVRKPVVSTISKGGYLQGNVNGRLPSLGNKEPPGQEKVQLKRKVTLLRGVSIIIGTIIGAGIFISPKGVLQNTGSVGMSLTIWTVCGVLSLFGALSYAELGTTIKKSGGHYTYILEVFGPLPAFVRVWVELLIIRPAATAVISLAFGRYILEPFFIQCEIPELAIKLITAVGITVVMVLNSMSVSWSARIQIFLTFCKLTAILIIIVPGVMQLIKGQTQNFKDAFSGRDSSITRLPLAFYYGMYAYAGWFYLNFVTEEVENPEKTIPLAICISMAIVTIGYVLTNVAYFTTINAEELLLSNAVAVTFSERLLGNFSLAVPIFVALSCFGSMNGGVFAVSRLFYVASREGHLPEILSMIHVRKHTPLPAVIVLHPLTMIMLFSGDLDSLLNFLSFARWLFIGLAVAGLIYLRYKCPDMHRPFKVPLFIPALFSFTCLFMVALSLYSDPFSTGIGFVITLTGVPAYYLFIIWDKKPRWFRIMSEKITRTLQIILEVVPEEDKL
T1 sequence (P08195 2-529 partner): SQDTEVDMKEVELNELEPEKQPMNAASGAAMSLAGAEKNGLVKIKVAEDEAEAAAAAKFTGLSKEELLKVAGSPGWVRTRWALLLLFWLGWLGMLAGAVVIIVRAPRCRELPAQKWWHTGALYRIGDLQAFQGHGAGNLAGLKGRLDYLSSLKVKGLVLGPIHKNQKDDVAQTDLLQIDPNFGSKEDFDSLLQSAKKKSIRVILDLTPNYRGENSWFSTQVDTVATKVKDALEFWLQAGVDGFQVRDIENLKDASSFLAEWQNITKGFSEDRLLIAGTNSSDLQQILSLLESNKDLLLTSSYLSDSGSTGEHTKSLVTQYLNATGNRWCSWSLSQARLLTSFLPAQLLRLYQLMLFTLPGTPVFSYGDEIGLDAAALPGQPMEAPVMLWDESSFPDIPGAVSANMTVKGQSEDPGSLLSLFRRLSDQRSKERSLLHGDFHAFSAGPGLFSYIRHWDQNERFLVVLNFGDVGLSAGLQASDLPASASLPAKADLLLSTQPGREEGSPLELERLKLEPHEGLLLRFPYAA
Nature of the assay: Inhibition of 3H-L-Glu uptake in DEM treated cells. It is filed as cell-based. The settings on record: SK-OV-3, 0.5 h; 1 mM agent; SKOV3 cells treated with 100 μM DEM overnight; 30 minutes uptake at room temperature; triplicate; lower = inhibition of transporter; read-out: % of control 3H-Glu uptake. On the procedure: Also provided are measurements of inhibition response of ^3H-L-GLU (control) uptake in DEM treated EL4 cells. As such 96 well plate were seeded with 100,000 SKOV3 cells/well in complete growth media (McCoy's+10% Fetal Bovine Serum(FBS)) and incubated overnight at 37° C. The media was changed to 100 μM DEM and again incubated overnight at 37° C. Wash 1× with Hank's Balanced Salt Solution (HBSS) Room Temperature and assayed […] of each agent (Table 2) in triplicate by incubating for 30 minutes (uptake) at room temperature. It was then washed twice with HBSS and 200 μl MicroScint20 added for counting. The protocol used 200 μCi ^3H-Glu per well. The mix and agent and ^3H-Glu provided a final concentration of 200 μCi and 1 mM agent. […] As such lower response is indicative of inhibition of the transporter. As such numbers below approximately 30% is equivalent to 70% inhibition and are considered good candidates for pharmaceutical agents.
Regarding `CC(=O)N(CCC[C@H](N)C(=O)O)CCC(=O)O` [Structure a], the remaining activity at 1000 µM is 118%.

For the compound `CC(=O)N(CCC[C@H](N)C(=O)O)CC(=O)O` [Structure b], the remaining activity at 1000 µM stood at 95.7%.

Regarding `CC(=O)N(CCCC[C@H](N)C(=O)O)CCC(=O)O` [Structure c], the remaining activity at 1000 µM was 102%.

Consider `N[C@@H](CCCN(CCC(=O)O)C(=O)c1ccccc1)C(=O)O` [Structure d], for which the remaining activity at 1000 µM was 36%.

With `CCCC(=O)N(CCCC[C@H](N)C(=O)O)CC(=O)O` [Structure e], the remaining activity at 1000 µM is 102%.

As for `N[C@@H](CCCN(CC(=O)O)C(=O)c1ccccc1)C(=O)O` [Structure f], the remaining activity at 1000 µM was 37.2%.

Turning to `CCc1ccc(C(=O)N(CCC[C@H](N)C(=O)O)CC(=O)O)cc1` [Structure g], the remaining activity at 1000 µM was 11.2%.

As to `CCOc1cccc(C(=O)N(CCC[C@H](N)C(=O)O)CC(=O)O)c1` [Structure h], the remaining activity at 1000 µM was determined as 39.8%.

For the compound `CCOc1ccc(C(=O)N(CCC[C@H](N)C(=O)O)CC(=O)O)cc1` [Structure i], the remaining activity at 1000 µM turned out to be 17.3%.

In the case of `N[C@@H](CCCN(CC(=O)O)C(=O)Cc1ccccc1)C(=O)O` [Structure j], the remaining activity at 1000 µM amounted to 43.3%.

For the compound `CCOc1ccc(C(=O)N(CCC[C@H](N)C(=O)O)CCC(=O)O)cc1` [Structure k], the remaining activity at 1000 µM stood at 11.6%.

`N[C@@H](CCCN(CCC(=O)O)C(=O)Cc1ccccc1)C(=O)O` [Structure l]: the remaining activity at 1000 µM came out at 54.2%.

Consider `N[C@@H](CCCN(CC(=O)O)C(=O)CCc1ccccc1)C(=O)O` [Structure n], for which the remaining activity at 1000 µM turned out to be 12.3%.

On to `N[C@@H](CCCN(CC(=O)O)C(=O)c1cccc2ccccc12)C(=O)O` [Structure p], for which the remaining activity at 1000 µM is 12.4%.

Consider `Cc1ccc(S(=O)(=O)N(CCC[C@H](N)C(=O)O)CC(=O)O)cc1` [Structure q], for which the remaining activity at 1000 µM is 13.4%.

As for `N[C@@H](CCCN(CC(=O)O)C(=O)OCc1ccccc1)C(=O)O` [Structure r], the remaining activity at 1000 µM was found to be 16.4%.

With `N[C@@H](CCCN(CC(=O)O)C(=O)c1ccc(O)cc1)C(=O)O` [Structure s], the remaining activity at 1000 µM came out at 22.4%.

On to `N[C@@H](CCCN(CCC(=O)O)C(=O)c1ccc(O)cc1)C(=O)O` [Structure t], for which the remaining activity at 1000 µM worked out at 45.4%.

Take `N[C@@H](CCCN(CCC(=O)O)C(=O)c1ccc(OCc2ccccc2)cc1)C(=O)O` [Structure u]: the remaining activity at 1000 µM is 12.7%.

As to `CCC(C(=O)O)N(CCC[C@H](N)C(=O)O)C(=O)c1ccccc1` (stereo partly shown) [Structure w], the remaining activity at 1000 µM came out at 26.1%.

As for `N[C@@H](CCCN(CC(=O)O)C(=O)c1ccc(OCCF)cc1)C(=O)O` [Structure x], the remaining activity at 1000 µM stood at 13.3%.

`N[C@@H](CCCN(CCC(=O)O)C(=O)c1ccc(OCCF)cc1)C(=O)O` [Structure y]: the remaining activity at 1000 µM came out at 10.6%.
